Test results taken from patent US9018208B2, “Heterocycles as potassium channel modulators” (Icagen Inc., priority 2007, dated 2015).

test system: SH-SY5Y M-currents (KCNQ2, KCNQ3 and KCNQ5); test: SH-SY5Y native cell line FLIPR assay (voltage-sensitive dye DiBAC); format: cell-based, mouse neuroblastoma, rat glioma hybrid cell line; details: FLIPR assay, SH-SY5Y native cell line; Table 1; read-out: SH-SY5Y EC50
In short: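 Response is peak DiBAC fluorescence change, normalised to the maximum from a positive control agent, sampled every 30 s over 25 min. Before compound addition, SH-SY5Y cells differentiated with PGE1 plus isomethylbutylxanthine were dye-loaded for 1 h in EBSS with […] DiBAC.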

EC50 | Structure (SMILES)
500 to 3000 nM | CC(C)(C)Cc1c(NC(=O)C2CC2)nc2ccc(C(F)(F)F)cn12 [Compound 64, N-(3-neopentyl-6-(trifluoromethyl)imidazo[1,2-a]pyridin-2-yl)cyclopropanecarboxamide]
< 500 nM | CC(C)(C)Cc1c(NC(=O)Cc2cccc(OC(F)(F)F)c2)nc2ccc(C(F)(F)F)cn12 [Compound 25, N-(3-neopentyl-6-(trifluoromethyl)imidazo[1,2-a]pyridin-2-yl)-2-(3-(trifluoromethoxy)phenyl)acetamide]
< 500 nM | CC(CC(=O)Nc1nc2ccc(C(F)(F)F)cn2c1C1CC1)C(F)(F)F (stereo not shown) [Compound 69, N-(3-cyclopropyl-6-(trifluoromethyl)imidazo[1,2-a]pyridin-2-yl)-4,4,4-trifluoro-3-methylbutanamide]
3000 to 10000 nM | Cc1ccc2nc(NC(=O)CC(C)C(F)(F)F)c(C3CC3)n2n1 (stereo not shown) [Compound 76, N-(3-cyclopropyl-6-methylimidazo[1,2-b]pyridazin-2-yl)-4,4,4-trifluoro-3-methylbutanamide]
< 500 nM | CC(C)(C)Cc1c(NC(=O)Cc2ccc(F)cc2)nc2ccc(C(F)(F)F)cn12 [Compound 21, 2-(4-fluorophenyl)-N-(3-neopentyl-6-(trifluoromethyl)imidazo[1,2-a]pyridin-2-yl)acetamide]
< 500 nM | CC(C)(C)Cc1c(NC(=O)CC2(C)CCCC2)nc2ccc(C(F)(F)F)cn12 [Compound 34, 2-(1-methylcyclopentyl)-N-(3-neopentyl-6-(trifluoromethyl)imidazo[1,2-a]pyridin-2-yl)acetamide]
< 500 nM | CC(C)(C)CC(=O)Nc1nc2ccc(C(F)(F)F)cn2c1C1CCCCC1 [Compound 33, N-(3-cyclohexyl-6-(trifluoromethyl)imidazo[1,2-a]pyridin-2-yl)-3,3-dimethylbutanamide]
< 500 nM | O=C(Cc1ccc(F)c(F)c1)Nc1nc2ccc(C(F)(F)F)cn2c1C1CC1 [Compound 77, N-(3-cyclopropyl-6-(trifluoromethyl)imidazo[1,2-a]pyridin-2-yl)-2-(3,4-difluorophenyl)acetamide]

same assay, conditions: FLIPR assay, SH-SY5Y native cell line; Table 2; read-out: SH-SY5Y EC50

EC50 | Structure (SMILES)
< 500 nM | CC(C)(C)CC(=O)Nc1nc2ccc(C#N)cn2c1-c1ccc(C(F)(F)F)cc1 [Compound 259, N-(6-cyano-3-(4-(trifluoromethyl)phenyl)imidazo[1,2-a]pyridin-2-yl)-3,3-dimethylbutanamide]
500 to 3000 nM | O=C(Cc1ccc(F)cc1)Nc1nc2ncc(Cl)cn2c1-c1ccc(C(F)(F)F)cc1 [Compound 317, N-(6-chloro-3-(4-(trifluoromethyl)phenyl)imidazo[1,2-a]pyrimidin-2-yl)-2-(4-fluorophenyl)acetamide]
500 to 3000 nM | O=C(Cc1ccccc1)Nc1nc2ccc(F)cn2c1-c1ccc(F)cc1 [Compound 106, N-(6-fluoro-3-(4-fluorophenyl)imidazo[1,2-a]pyridin-2-yl)-2-phenylacetamide]
< 500 nM | O=C(CC1CCCC1)Nc1nc2ccccn2c1-c1ccc(OC(F)(F)F)cc1 [Compound 226, 2-cyclopentyl-N-(3-(4-(trifluoromethoxy)phenyl)imidazo[1,2-a]pyridin-2-yl)acetamide]
< 500 nM | O=C(Nc1nc2ccc(F)cn2c1-c1cccc(C(F)(F)F)c1)C1CCC(F)(F)CC1 [Compound 328, 4,4-difluoro-N-(6-fluoro-3-(3-(trifluoromethyl)phenyl)imidazo[1,2-a]pyridin-2-yl)cyclohexanecarboxamide]
< 500 nM | CC(C)(C)CC(=O)Nc1nc2ccc(F)cn2c1-c1ccc(F)cc1 [Compound 103, N-(6-fluoro-3-(4-fluorophenyl)imidazo[1,2-a]pyridin-2-yl)-3,3-dimethylbutanamide]
500 to 3000 nM | N#Cc1ccc2nc(NC(=O)Cc3ccccc3)c(-c3ccc(F)cc3)n2c1 [Compound 160, N-(6-cyano-3-(4-fluorophenyl)imidazo[1,2-a]pyridin-2-yl)-2-phenylacetamide]
500 to 3000 nM | CC(C)(C)[C@H](O)C(=O)Nc1nc2ccc(F)cn2c1-c1ccc(C(F)(F)F)cc1 [Compound 341, (S)—N-(6-fluoro-3-(4-(trifluoromethyl)phenyl)imidazo[1,2-a]pyridin-2-yl)-2-hydroxy-3,3-dimethylbutanamide]
< 500 nM | O=C(Nc1nc2ccc(F)cn2c1-c1cccc(OC(F)(F)F)c1)C1CCC(F)(F)CC1 [Compound 327, 4,4-difluoro-N-(6-fluoro-3-(3-(trifluoromethoxy)phenyl)imidazo[1,2-a]pyridin-2-yl)cyclohexanecarboxamide]
< 500 nM | Cc1ccn2c(-c3ccc(F)cc3)c(NC(=O)Cc3ccc(C(F)(F)F)cc3)nc2c1 [Compound 187, N-(3-(4-fluorophenyl)-7-methylimidazo[1,2-a]pyridin-2-yl)-2-(4-(trifluoromethyl)phenyl)acetamide]
500 to 3000 nM | O=C(CCC(F)(F)F)Nc1nc2ccc(F)cn2c1-c1ccc(OC(F)(F)F)cc1 [Compound 173, 4,4,4-trifluoro-N-(6-fluoro-3-(4-(trifluoromethoxy)phenyl)imidazo[1,2-a]pyridin-2-yl)butanamide]
3000 to 10000 nM | O=C(Nc1nc2ccc(F)cn2c1-c1ccc(OC(F)(F)F)cc1)[C@@H]1CCCO1 [Compound 244, (S)—N-(6-fluoro-3-(4-(trifluoromethoxy)phenyl)imidazo[1,2-a]pyridin-2-yl)tetrahydrofuran-2-carboxamide]

same assay, conditions: FLIPR assay, SH-SY5Y native cell line; Table 5; read-out: SH-SY5Y EC50

EC50 | Structure (SMILES)
3000 to 10000 nM | Cc1c(NC(=O)C(F)(F)F)nc2ccc(F)cn12 [Compound 421, 2,2,2-trifluoro-N-(6-fluoro-3-methylimidazo[1,2-a]pyridin-2-yl)acetamide]

same assay, conditions: SH-SY5Y native cell line, FLIPR assay (Table 3); read-out: SH-SY5Y EC50

EC50 | Structure (SMILES)
< 500 nM | O=C(Nc1nc2ccc(F)cn2c1-c1cc(C(F)(F)F)ccn1)C1CCC(F)(F)CC1 [Compound 402, 4,4-difluoro-N-(6-fluoro-3-(4-(trifluoromethyl)pyridin-2-yl)imidazo[1,2-a]pyridin-2-yl)cyclohexanecarboxamide]
3000 to 10000 nM | Cc1ccc2nc(NC(=O)CC(C)(C)C)c(-c3cc(C(F)(F)F)ccn3)n2n1 [Compound 394, 3,3-dimethyl-N-(6-methyl-3-(4-(trifluoromethyl)pyridin-2-yl)imidazo[1,2-b]pyridazin-2-yl)butanamide]
3000 to 10000 nM | CC(C)(C)CC(=O)Nc1nc2ccccn2c1-c1cscn1 [Compound 414, 3,3-dimethyl-N-(3-(thiazol-4-yl)imidazo[1,2-a]pyridin-2-yl)butanamide]
3000 to 10000 nM | CC(C)(C)CC(=O)Nc1nc2ccc(F)cn2c1-c1cncc(C(F)(F)F)c1 [Compound 355, N-(6-fluoro-3-(5-(trifluoromethyl)pyridin-3-yl)imidazo[1,2-a]pyridin-2-yl)-3,3-dimethylbutanamide]
3000 to 10000 nM | CC(CC(=O)Nc1nc2ccc(F)cn2c1-c1nc2ccccc2s1)C(F)(F)F (stereo not shown) [Compound 374, N-(3-(benzo[d]thiazol-2-yl)-6-fluoroimidazo[1,2-a]pyridin-2-yl)-4,4,4-trifluoro-3-methylbutanamide]

same assay, conditions: SH-SY5Y native cell line, FLIPR assay (Table 6); read-out: SH-SY5Y EC50

EC50 | Structure (SMILES)
< 500 nM | CC(C)(CC(=O)Nc1nc2ccc(F)cn2c1CC1CCCCC1)C(F)(F)F [Compound 444, N-(3-(cyclohexylmethyl)-6-fluoroimidazo[1,2-a]pyridin-2-yl)-4,4,4-trifluoro-3,3-dimethylbutanamide]
500 to 3000 nM | O=C(Nc1nc2ccc(C(F)(F)F)nn2c1C1CCCC1)c1ccc(F)c(F)c1 [Compound 447, N-(3-cyclopentyl-6-(trifluoromethyl)imidazo[1,2-b]pyridazin-2-yl)-3,4,-difluorobenzamide]
